In patent US20250170112A1, “ADENOSINE LIGANDS FOR THE TREATMENT OF NEUROLOGICAL DISORDERS” (Lucy Therapeutics, Inc., priority 2022, published 2025):

Tests used:
[1] = biological target: T1, human Adenosine A1 receptor (Homo sapiens, UniProt P30542); test: GTPγS scintillation proximity assay, agonist testing; type: biochemical; conditions: agonist activity; membrane extracts of CHO-K1 cells expressing recombinant human A1; read-out: A1AR EC50
T1 construct: host or cells: CHO-K1
T1 sequence (P30542 1-326): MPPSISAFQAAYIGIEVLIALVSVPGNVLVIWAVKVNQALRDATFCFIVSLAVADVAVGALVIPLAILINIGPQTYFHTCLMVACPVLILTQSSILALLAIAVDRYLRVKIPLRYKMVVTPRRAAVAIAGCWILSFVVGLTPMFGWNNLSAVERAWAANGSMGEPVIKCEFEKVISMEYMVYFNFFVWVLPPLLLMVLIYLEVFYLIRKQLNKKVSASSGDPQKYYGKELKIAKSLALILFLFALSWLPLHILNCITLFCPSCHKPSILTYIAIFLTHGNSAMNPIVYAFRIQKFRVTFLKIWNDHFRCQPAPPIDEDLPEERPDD
Protocol: (§1) SPA ^35S-GTPγS experiments were conducted with Epics Therapeutics membrane preparations. cAMP HTRF assays were conducted with recombinant cell lines.
• Assay buffer: 20 mM HEPES pH 7.4; 100 mM NaCl, 10 μg/mL saponin, MgCl2 at optimized concentration for the specific receptor. • Membranes: membrane extracts prepared from CHO-K1 cells expressing recombinant human Adenosine A1 receptor, thawed on ice, diluted in assay buffer and kept on ice. • GDP: diluted in assay buffer at the optimized concentration for the specific receptor Beads: PVT-WGA (Perkin Elmer, RPNQ001), diluted in assay buffer at 50 mg/mL (0.5 mg/10 μL) • GTPγ^35S: (Perkin Elmer, NEG030X), diluted in assay buffer for a final 0.1 nM assay concentration
Protocol for agonist testing: membranes are mixed with GDP (volume:volume). In parallel, GTPγ[^35S] is mixed with the beads (volume:volume) just before starting the reaction. The following reagents are successively added in the wells of an Optiplate (Perkin Elmer): 50 μL of test or reference ligand, 25 μL of the membranes:GDP mix, and 25 μL of the GTPγ[^35S]:beads mix. The plates are covered with a top seal, mixed on an orbital shaker for 2 min, and then incubated for 1 hour at room temperature. Then the plates are centrifuged for 10 min at 2000 rpm, incubated at room temperature and counted for 30 sec/well with a PerkinElmer TopCount™ reader. • Conditions for the GTPγS scintillation proximity assay are shown in Table 14.

human A2B = biological target: T2, human A2B (Homo sapiens, UniProt P29275); test: cAMP HTRF assay for Gs coupled receptor, agonist test; type: cell-based; conditions: agonist activity; HEK293 cells expressing recombinant human A2B; read-out: A2BAR EC50
T2 construct: expressed in transfected cells; host or cells: HEK293
T2 sequence (P29275 1-332): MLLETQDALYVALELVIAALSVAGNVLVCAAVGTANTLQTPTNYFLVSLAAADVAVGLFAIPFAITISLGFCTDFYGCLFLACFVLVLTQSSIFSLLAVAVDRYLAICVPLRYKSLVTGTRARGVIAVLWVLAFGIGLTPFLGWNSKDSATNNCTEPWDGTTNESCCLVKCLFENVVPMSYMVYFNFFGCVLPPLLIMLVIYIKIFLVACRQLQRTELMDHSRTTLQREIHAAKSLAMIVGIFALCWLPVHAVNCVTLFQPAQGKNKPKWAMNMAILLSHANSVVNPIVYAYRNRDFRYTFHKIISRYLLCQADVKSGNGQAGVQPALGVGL
Protocol: as §1
Dose response curves are performed in parallel with the reference compounds.
For agonist test (96 well): 12 μL of cells are mixed with 12 μL of the test compound at increasing concentrations and then incubated 30 min at room temperature. After addition of the lysis buffer containing cAMP-d2 and anti-cAMP cryptate detection reagents, plates are incubated 1 hour incubation at room temperature, and fluorescence ratios are measured according to the manufacturer specification, with the HTRF kit.

Row | Compound | EC50 [1] [nM] | EC50 (human A2B) [nM]
1 | N#Cc1c(N)nc(OCC2CCOCC2)c(C#N)c1-c1ccc(OC2COC2)cc1 [Compound 298] | 229 | > 10000
2 | COCCOc1ccc(-c2c(C#N)c(N)nc(SCc3cccc4[nH]ccc34)c2C#N)cc1 [Compound 67] | 17.6 | > 10000
3 | N#Cc1c(N)nc(SCc2ccnnc2)c(C#N)c1-c1ccc(OCCO)cc1 [Compound 162] | 11 | 0.7
4 | CNc1nc(SCc2cccnc2)c(C#N)c(-c2ccc(OCCOC(F)F)cc2)c1C#N [Compound 258] | > 10000 | > 10000
5 | COCCOc1ccc(-c2c(C#N)c(SCc3cccnc3)nc(N3CC(F)(F)C3)c2C#N)cc1 [Compound 276] | 98.8 | > 10000
6 | CN(C)c1nc(SCc2cccnc2)c(C#N)c(-c2ccc(OC(F)(F)CO)cc2)c1C#N [Compound 254] | > 10000 | > 10000
7 | N#Cc1c(SCc2cccnc2)nc(N2CC(F)C2)c(C#N)c1-c1ccc(OC2COC2)cc1 [Compound 271] | 30.3 | 116
8 | N#Cc1c(N)nc(SCC2(O)COC2)c(C#N)c1-c1ccc(OC2COC2)cc1 [Compound 315] | 81.8 | > 10000
9 | N#Cc1c(SCc2cccnc2)nc(N2CC(F)(F)C2)c(C#N)c1-c1ccc(OCCOC(F)F)cc1 [Compound 264] | > 10000 | > 10000
10 | COCCOc1ccc(-c2c(C#N)c(N)nc(SCC(=O)O)c2C#N)cc1 [Compound 68] | > 10000 | 4230
11 | N#Cc1c(SCCO)nc(N2CCC2)c(C#N)c1-c1ccc(OCCO)cc1 [Compound 90] | 347 | 869
12 | N#Cc1c(N)nc(SCc2cccc3occc23)c(C#N)c1-c1ccc(OCCO)cc1 [Compound 7] | > 10000 | 150
13 | COCCOc1ccc(-c2c(C#N)c(SCc3cnccn3)nc(N3CCC3)c2C#N)cc1 [Compound 21] | 3520 | > 10000
14 | CC(O)CSc1nc(N2CCCC2)c(C#N)c(-c2ccc(OCCO)cc2)c1C#N (stereo not shown) [Compound 106] | 502 | > 10000
15 | CC1(CSc2nc(N)c(C#N)c(-c3ccc(OC4COC4)cc3)c2C#N)COC1 [Compound 226] | 22 | > 10000
16 | N#Cc1c(N)nc(OCC2CCCOC2)c(C#N)c1-c1ccc(OC2COC2)cc1 (stereo not shown) [Compound 300, 2-Amino-4-(4-(oxetan-3-yloxy)phenyl)-6-((tetrahydro-2H-pyran-3-yl)methoxy)pyridine-3,5-dicarbonitrile] | 1150 | > 10000
17 | N#Cc1c(SCCO)nc(N2CCCC2)c(C#N)c1-c1ccc(OCCO)cc1 [Compound 95] | 276 | 459
18 | COC1CC(Oc2ccc(-c3c(C#N)c(N)nc(SCC4CCOC4)c3C#N)cc2)C1 (stereo not shown) [Compound 321] | > 10000 | > 10000
19 | N#Cc1c(SCc2cccnn2)nc(C2CC2)c(C#N)c1-c1ccc(OCCOC(F)F)cc1 [Compound 239] | 840 | > 10000
20 | N#Cc1c(SCc2cccnn2)nc(N2CCC2)c(C#N)c1-c1ccc(OCCO)cc1 [Compound 20] | 14.1 | 3
21 | N#Cc1c(N)nc(OCC2CCCCO2)c(C#N)c1-c1ccc(OC2COC2)cc1 (stereo not shown) [Compound 299] | > 10000 | > 10000
22 | COCCOc1ccc(-c2c(C#N)c(N)nc(SCc3cccnn3)c2C#N)cc1 [Compound 195] | 9.7 | > 10000
23 | N#Cc1c(SCc2cccnc2)nc(N2CC(O)C2)c(C#N)c1-c1ccc(OCCOC(F)F)cc1 [Compound 265] | 12.5 | > 10000
24 | N#Cc1c(N)nc(SC[C@H]2CCOC2)c(C#N)c1-c1ccc(OC2COC2)cc1 [Compound 225] | 0.75 | 118
25 | N#Cc1c(N)nc(SC[C@@H]2CCOC2)c(C#N)c1-c1ccc(OC2COC2)cc1 [Compound 228] | 1460 | 7550

Row | Compound | EC50 [1] [nM] | EC50 (human A2B) [nM]
26 | N#Cc1c(SCc2cccnc2)nc(N2CC(F)(F)C2)c(C#N)c1-c1ccc(OC2COC2)cc1 [Compound 272] | 22 | 311
27 | CN(C)CCSc1nc(N)c(C#N)c(-c2ccc(OCCO)cc2)c1C#N [Compound 132] | > 10000 | 645
28 | Cc1ccc(CSc2nc(N3CCCC3)c(C#N)c(-c3ccc(OCCO)cc3)c2C#N)cn1 [Compound 70] | 469 | 209
29 | COCCOc1ccc(-c2c(C#N)c(SCc3ccccn3)nc(N3CC(F)C3)c2C#N)cc1 [Compound 250] | 33.2 | > 10000
30 | N#Cc1c(SCCC(N)=O)nc(N2CCCC2)c(C#N)c1-c1ccc(OCCO)cc1 [Compound 96] | > 10000 | 97
31 | N#Cc1c(N)nc(CCc2cccnc2)c(C#N)c1-c1ccc(OCCO)cc1 [Compound 125] | > 10000 | 468
32 | CN(Cc1cccnc1)c1nc(N)c(C#N)c(-c2ccc(OCCO)cc2)c1C#N [Compound 160] | 130 | 56
33 | CC(C)(O)COc1ccc(-c2c(C#N)c(N)nc(SCC3COC3)c2C#N)cc1 [Compound 317] | 88.7 | > 10000
34 | COc1cccc(CSc2nc(N)c(C#N)c(-c3ccc(OC4COC4)cc3)c2C#N)c1 [Compound 33] | 7.9 | 563
35 | N#Cc1c(N)nc(SCC2OCCO2)c(C#N)c1-c1ccc(OC2COC2)cc1 [Compound 304] | 167 | > 10000
36 | N#Cc1c(N)nc(SCC2CCCOC2)c(C#N)c1-c1ccc(OC2COC2)cc1 (stereo not shown) [Compound 9] | 884 | 2490
37 | N#Cc1c(N)nc(SCc2cncnc2)c(C#N)c1-c1ccc(OCCO)cc1 [Compound 175] | 20 | 0.9
38 | COCCOc1ccc(-c2c(C#N)c(SCc3cncnc3)nc(N3CC(F)C3)c2C#N)cc1 [Compound 249] | > 10000 | > 10000
39 | CC(O)COc1ccc(-c2c(C#N)c(SCc3cccnc3)nc(N3CCCC3)c2C#N)cc1 (stereo not shown) [Compound 52] | 94.2 | 5.3
40 | COCCOc1ccc(-c2c(C#N)c(SCc3ncccn3)nc(N3CC(F)C3)c2C#N)cc1 [Compound 251] | > 10000 | > 10000
41 | N#Cc1c(SCc2cccnc2)nc(N2CCC2)c(C#N)c1-c1ccc(OC(F)(F)CO)cc1 [Compound 259, 2-(Azetidin-1-yl)-4-(4-(1,1-difluoro-2-hydroxyethoxy)phenyl)-6-((pyridin-3-ylmethyl)thio)pyridine-3,5-dicarbonitrile] | > 10000 | 198
42 | N#Cc1c(N)nc(SCc2n[nH]c3ccccc23)c(C#N)c1-c1ccc(OCCO)cc1 [Compound 207] | 739 | 108
43 | N#CCCSc1nc(N)c(C#N)c(-c2ccc(OCCO)cc2)c1C#N [Compound 121] | 327 | 576
44 | Cc1ccc(CSc2nc(N3CCC3)c(C#N)c(-c3ccc(OCCO)cc3)c2C#N)c(C)n1 [Compound 74] | > 10000 | 8100
45 | N#Cc1c(N)nc(SCC2CCOC2)c(C#N)c1-c1ccc(OC2COC2)cc1 (stereo not shown) [Compound 24] | 9.8 | > 10000
46 | N#Cc1c(N)nc(SCC2COCOC2)c(C#N)c1-c1ccc(OC2COC2)cc1 [Compound 297] | 1100 | > 10000
47 | COCCOc1ccc(-c2c(C#N)c(N)nc(SCCOC)c2C#N)cc1 [Compound 147] | 55 | 8560
48 | COCCOc1ccc(-c2c(C#N)c(N)nc(SCc3ccc4c(c3)OCC4)c2C#N)cc1 [Compound 16] | 7600 | > 10000
49 | N#Cc1c(N)nc(SCC2(F)COC2)c(C#N)c1-c1ccc(OCCO)cc1 [Compound 320] | 230 | > 10000
50 | COCCOc1ccc(-c2c(C#N)c(SCc3cccnc3)nc(N3CCCC3)c2C#N)cc1 [Compound 107] | 97 | > 10000
